Assays:
rgRSV224 virus = test: Antiviral activity: rgRSV224 (GFP) replication in HeLa cells; format: cell-based, respiratory syncytial virus (RSV); conditions: human respiratory syncytial virus, HeLa, 72 h, read-out: RSV HELA EC50 (μM), rgRSV224 virus (MOI=1), HeLa cells, GFP expression three days post-virus exposure
in vitro = conditions: human, TOX HELA CC50 (μM)

SMILES	EC50 (rgRSV224 virus)	CC50 at 3 days (in vitro)
C[C@@H]1c2ccccc2CCN1C(=O)c1cc(C2CC2)n2nc(-c3ccc(N4CC[C@H](C(=O)NS(C)(=O)=O)C4)cc3F)cc2n1 [Compound 40, (3S)-1-(4-{7-Cyclopropyl-5-[(1R)-1-methyl-1,2,3,4-tetrahydroisoquinoline-2-carbonyl]-pyrazolo[1,5-a]pyrimidin-2-yl}-3-fluorophenyl)-N-methanesulfonylpyrrolidine-3-carboxamide]	0.061 µM	52.3 µM
C[C@@H]1c2ccccc2CCN1C(=O)c1cc(-c2cncnc2)n2nc(-c3ccc(N4CC[C@H](C(N)=O)C4)cc3F)cc2n1 [Compound 64, (3S)-1-(3-Fluoro-4-{5-[(1R)-1-methyl-1,2,3,4-tetrahydroisoquinoline-2-carbonyl]-7-(pyrimidin-5-yl)pyrazolo[1,5-a]pyrimidin-2-yl}phenyl)pyrrolidine-3-carboxamide]	0.029 µM	8.9 µM
C[C@@H]1c2ccsc2CCN1C(=O)c1cc(C2CC2)n2nc(-c3ccc(N4CC[C@](C)(CC(N)=O)C4)cc3F)cc2n1 (single isomer, unassigned) [Compound 25, 2-[(3*R)-1-(4-{7-Cyclopropyl-5-[(4*R)-4-methyl-4,5,6,7-tetrahydro-thieno[3,2-c]pyridine-5-carbonyl]pyrazolo[1,5-a]pyrimidin-2-yl}-3-fluorophenyl)-3-methylpyrrolidin-3-yl]acetamide]	0.023 µM	29.6 µM
C[C@@H]1c2ccccc2CCN1C(=O)c1cc(C2CC2)n2nc(-c3ccc(N4CC[C@H](C(N)=S)C4)cc3F)cc2n1 [Compound 101, (S)-1-(4-(7-cyclopropyl-5-((R)-1-methyl-1,2,3,4-tetrahydroisoquinoline-2-carbonyl)pyrazolo[1,5-a]pyrimidin-2-yl)-3-fluorophenyl)pyrrolidine-3-carbothioamide]	0.058 µM	45.4 µM
CNC(=O)[C@H]1CCN(c2ccc(-c3cc4nc(C(=O)N5CCc6ccccc6[C@H]5C)cc(C5CC5)n4n3)c(F)n2)C1 [Compound 50, (3S)-1-(5-{7-Cyclopropyl-5-[(1R)-1-methyl-1,2,3,4-tetrahydroisoquinoline-2-carbonyl]-pyrazolo[1,5-a]pyrimidin-2-yl}-6-fluoropyridin-2-yl)-N-methylpyrrolidine-3-carboxamide]	0.031 µM	35.1 µM
C[C@@H]1c2ccccc2CCN1C(=O)c1cc(C2CC2)n2nc(-c3c(O)cc(N4CC[C@H](C(N)=O)C4)cc3F)cc2n1 [Compound 105, (S)-1-(4-(7-cyclopropyl-5-((R)-1-methyl-1,2,3,4-tetrahydroisoquinoline-2-carbonyl)pyrazolo[1,5-a]pyrimidin-2-yl)-3-fluoro-5-hydroxyphenyl)pyrrolidine-3-carboxamide]	0.025 µM	83.6 µM
C[C@@H]1c2ccsc2CCN1C(=O)c1cc(C2CC2)n2nc(-c3ccc(N4CC[C@@](C)(CC(N)=O)C4)cc3F)cc2n1 (single isomer, unassigned) [Compound 26, 2-[(3*S)-1-(4-{7-Cyclopropyl-5-[(4*R)-4-methyl-4,5,6,7-tetrahydro-thieno[3,2-c]pyridine-5-carbonyl]pyrazolo[1,5-a]pyrimidin-2-yl}-3-fluorophenyl)-3-methylpyrrolidin-3-yl]acetamide]	0.02 µM	29.6 µM
C[C@@H]1c2ccccc2CCN1C(=O)c1cc(C2CC2)n2nc(-c3ccc(N4CC[C@@H](C(C)(C)C(N)=O)C4)cc3F)cc2n1 (single isomer, unassigned) [Compound 28, 2-[(3*S)-1-(4-{7-Cyclopropyl-5-[(1R)-1-methyl-1,2,3,4-tetrahydroisoquinoline-2-carbonyl]pyrazolo[1,5-a]pyrimidin-2-yl}-3-fluorophenyl)pyrrolidin-3-yl]-2-methylpropanamide]	0.072 µM	32.2 µM
C[C@@H]1c2ccccc2CCN1C(=O)c1cc(C2CC2)n2nc(-c3ccc(N4CC[C@@H](OC(N)=O)C4)cc3F)cc2n1 [Compound 77, (3R)-1-(4-{7-Cyclopropyl-5-[(1R)-1-methyl-1,2,3,4-tetrahydroisoquinoline-2-carbonyl]pyrazolo[1,5-a]pyrimidin-2-yl}-3-fluorophenyl)pyrrolidin-3-yl carbamate]	0.082 µM	> 100 µM
C[C@@H]1c2ccccc2CCN1C(=O)c1cc(C2CC2)n2nc(-c3ccc(N4CCC(O)(CO)C4)cc3F)cc2n1 (single isomer, unassigned) [Compound 103]	0.019 µM	35.8 µM
C[C@@H]1c2ccccc2CCN1C(=O)c1cc(C2CC2)n2nc(-c3ccc(N4CC[C@@H](c5nnn[nH]5)C4)cc3F)cc2n1 [Compound 2, (1R)-2-(7-Cyclopropyl-2-{2-fluoro-4-[(3R)-3-(1H-1,2,3,4-tetrazol-5-yl)pyrrolidin-1-yl]phenyl}pyrazolo[1,5-a]pyrimidine-5-carbonyl)-1-methyl-1,2,3,4-tetrahydroisoquinoline]	0.056 µM	38.7 µM
C[C@@H]1c2ccccc2CCN1C(=O)c1cc(C2CC2)n2nc(-c3ccc(N4CC[C@H](C(=O)NS(C)(=O)=O)C4)nc3F)cc2n1 [Compound 51, (3S)-1-(5-{7-Cyclopropyl-5-[(1R)-1-methyl-1,2,3,4-tetrahydroisoquinoline-2-carbonyl]-pyrazolo[1,5-a]pyrimidin-2-yl}-6-fluoropyridin-2-yl)-N-methanesulfonylpyrrolidine-3-carboxamide]	0.131 µM	67.9 µM
C[C@@H]1c2ccccc2CCN1C(=O)c1cc(C2CC2)n2nc(-c3ccc(N4CC(CC(N)=O)C4)nc3F)cc2n1 [Compound 92, 2-[1-(5-{7-Cyclopropyl-5-[(1R)-1-methyl-1,2,3,4-tetrahydroisoquinoline-2-carbonyl]-pyrazolo[1,5-a]pyrimidin-2-yl}-6-fluoropyridin-2-yl)azetidin-3-yl]acetamide]	0.071 µM	41.5 µM
C[C@@H]1c2ccccc2CCN1C(=O)c1cc(C2CC2)n2nc(-c3ccc(N4CC[C@H](S(C)(=O)=O)C4)cc3F)cc2n1 [Compound 18, (1R)-2-(7-Cyclopropyl-2-{2-fluoro-4-[(3S)-3-methanesulfonylpyrrolidin-1-yl]phenyl}-pyrazolo[1,5-a]pyrimidine-5-carbonyl)-1-methyl-1,2,3,4-tetrahydroisoquinoline]	0.044 µM	> 100 µM
C[C@@H]1c2ccccc2CCN1C(=O)c1cc(-c2ccc(F)cc2)n2nc(-c3ccc(N4CC[C@H](C(N)=O)C4)cc3F)cc2n1 [Compound 60, (3S)-1-{3-Fluoro-4-[7-(4-fluorophenyl)-5-[(1R)-1-methyl-1,2,3,4-tetrahydroisoquinoline-2-carbonyl]pyrazolo[1,5-a]pyrimidin-2-yl]phenyl}pyrrolidine-3-carboxamide]	0.029 µM	41.3 µM
Cc1cc(N2CC[C@H](C(N)=O)C2)cc(F)c1-c1cc2nc(C(=O)N3CCc4ccccc4[C@H]3C)cc(C3CC3)n2n1 [Compound 89, (3S)-1-(4-{7-Cyclopropyl-5-[(1R)-1-methyl-1,2,3,4-tetrahydroisoquinoline-2-carbonyl]pyrazolo[1,5-a]pyrimidin-2-yl}-3-fluoro-5-methylphenyl)pyrrolidine-3-carboxamide]	0.165 µM	33.4 µM
Cc1ccc(-c2cc(C(=O)N3CCc4ccccc4[C@H]3C)nc3cc(-c4ccc(N5CC[C@H](C(N)=O)C5)cc4F)nn23)cc1 [Compound 58, (3S)-1-(3-Fluoro-4-{5-[(1R)-1-methyl-1,2,3,4-tetrahydroisoquinoline-2-carbonyl]-7-(4-methylphenyl)pyrazolo[1,5-a]pyrimidin-2-yl}phenyl)pyrrolidine-3-carboxamide]	0.036 µM	> 100 µM
CC(=O)NS(=O)(=O)C1CCN(c2ccc(-c3cc4nc(C(=O)N5CCc6ccccc6[C@H]5C)cc(C5CC5)n4n3)c(F)c2)C1 (stereo partly drawn) [Compound 20, N-{[1-(4-{7-Cyclopropyl-5-[(1R)-1-methyl-1,2,3,4-tetrahydroisoquinoline-2-carbonyl]-pyrazolo[1,5-a]pyrimidin-2-yl}-3-fluorophenyl)pyrrolidin-3-yl]sulfonyl}acetamide]	0.052 µM	55.9 µM
COC(=O)N[C@H]1CCN(c2ccc(-c3cc4nc(C(=O)N5CCc6ccccc6[C@H]5C)cc(C5CC5)n4n3)c(F)c2)C1 [Compound 10, Methyl N-[(3S)-1-[4-{7-cyclopropyl-5-[(1R)-1-methyl-1,2,3,4-tetrahydroisoquinoline-2-carbonyl]pyrazolo[1,5-a]pyrimidin-2-yl}-3-fluorophenyl)pyrrolidin-3-yl]carbamate]	0.07 µM	> 100 µM
C[C@@H]1c2ccccc2CCN1C(=O)c1cc(C2CC2)n2nc(-c3ccc(N4CC[C@H](OC(N)=O)C4)cc3F)cc2n1 [Compound 78, (3S)-1-(4-{7-Cyclopropyl-5-[(1R)-1-methyl-1,2,3,4-tetrahydroisoquinoline-2-carbonyl]pyrazolo[1,5-a]pyrimidin-2-yl}-3-fluorophenyl)pyrrolidin-3-yl carbamate]	0.055 µM	47.3 µM
C[C@@H]1c2ccccc2CCN1C(=O)c1cc(C2CC2)n2nc(-c3ccc(N4CC[C@@H](OC(N)=O)C4)nc3F)cc2n1 [Compound 85, (3R)-1-(5-{7-Cyclopropyl-5-[(1R)-1-methyl-1,2,3,4-tetrahydroisoquinoline-2-carbonyl]-pyrazolo[1,5-a]pyrimidin-2-yl}-6-fluoropyridin-2-yl)pyrrolidin-3-yl carbamate]	0.152 µM	> 100 µM
C[C@@H]1c2ccccc2CCN1C(=O)c1cc(C2CC2)n2nc(-c3ccc(N4CC[C@H](c5nnn[nH]5)C4)cc3F)cc2n1 [Compound 3, (1R)-2-(7-Cyclopropyl-2-{2-fluoro-4-[(3S)-3-(1H-1,2,3,4-tetrazol-5-yl)pyrrolidin-1-yl]phenyl}pyrazolo[1,5-a]pyrimidine-5-carbonyl)-1-methyl-1,2,3,4-tetrahydroisoquinoline]	0.063 µM	43 µM

From US11339165B2, “Pyrazolopyrimidines having activity against the respiratory syncytial virus (RSV)” (priority 2017, dated 2022)
